The results in this text go back to ChEMBL document CHEMBL1909046, “DrugMatrix in vitro pharmacology data”.

Experiment [1] deals with Mitogen-activated protein kinase 3 (Homo sapiens, UniProt P27361). Kind of experiment: DRUGMATRIX: Protein Serine/Threonine Kinase, ERK1 enzyme inhibition (substrate: Myelin Basic Protein). Also on record: species or system Escherichia coli. Particulars: Not Active = under 50% inhibition at 10 µM.
A short description of experiment [2]: DRUGMATRIX: Glutamate, AMPA radioligand binding (ligand: [3H] AMPA). It counts as cell membranes, Rattus norvegicus, Wistar, Cerebral cortex, Membrane. The following applies: Not Active = under 50% inhibition at 10 µM.
Experiment [3] deals with T1, Alpha-2A adrenergic receptor (Homo sapiens, UniProt P08913).
T1 sequence (P08913 whole entry): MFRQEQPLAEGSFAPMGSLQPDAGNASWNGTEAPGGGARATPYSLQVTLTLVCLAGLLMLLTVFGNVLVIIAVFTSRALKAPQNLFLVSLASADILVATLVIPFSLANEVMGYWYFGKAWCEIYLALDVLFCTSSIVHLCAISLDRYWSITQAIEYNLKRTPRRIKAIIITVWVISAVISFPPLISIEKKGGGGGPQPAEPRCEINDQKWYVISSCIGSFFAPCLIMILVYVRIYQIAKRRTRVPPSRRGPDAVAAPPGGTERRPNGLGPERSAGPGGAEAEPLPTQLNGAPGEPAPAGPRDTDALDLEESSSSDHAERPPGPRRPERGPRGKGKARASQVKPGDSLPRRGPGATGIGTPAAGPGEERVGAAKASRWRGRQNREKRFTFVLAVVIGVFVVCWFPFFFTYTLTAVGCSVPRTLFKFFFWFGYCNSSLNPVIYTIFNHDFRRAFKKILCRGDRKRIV
The experiment is classed as cell membranes, Sf9, Membrane. Particulars: for Ki: read-out: Ki.

In experiment [4] the target is T2, Adenosine receptor A1 (Homo sapiens, UniProt P30542).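 Further: radioligand binding assay at the adenosine A1 receptor, with DPCPX serving as the labelled ligand; in other assays of this panel Not Active means under 50% inhibition at 10 µM.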
T2 sequence (P30542 whole entry): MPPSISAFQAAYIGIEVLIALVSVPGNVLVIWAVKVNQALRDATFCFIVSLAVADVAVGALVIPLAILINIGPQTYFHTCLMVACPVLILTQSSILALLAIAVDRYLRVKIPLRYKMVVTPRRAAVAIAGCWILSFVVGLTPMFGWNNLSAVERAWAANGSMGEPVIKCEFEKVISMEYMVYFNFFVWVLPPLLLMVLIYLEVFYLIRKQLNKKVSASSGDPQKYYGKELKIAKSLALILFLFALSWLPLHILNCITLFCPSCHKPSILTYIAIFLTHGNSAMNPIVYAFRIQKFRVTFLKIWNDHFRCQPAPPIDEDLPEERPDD
The experiment is classed as cell membranes, CHO, Membrane. The following applies: cho.

Experiment [5] can be described thus: DRUGMATRIX: Nicotinic Acetylcholine radioligand binding (ligand: [125I] Epibatidine). Particulars: imr-32; Not Active = under 50% inhibition at 10 µM. It counts as cell membranes, Membrane.
Experiment [6] addresses Epidermal growth factor receptor (Homo sapiens, UniProt P00533). Kind of experiment: DRUGMATRIX: Protein Tyrosine Kinase, EGF Receptor enzyme inhibition (substrate: Poly(Glu:Tyr)). The experiment is classed as cell-based, Insect cells. Particulars: insect cells; Not Active = under 50% inhibition at 10 µM.
The nature of experiment [7]: DRUGMATRIX: Imidazoline I2, Central radioligand binding (ligand: [3H] Idazoxan). The experiment is classed as cell membranes, Rattus norvegicus, Wistar, Cerebral cortex, Membrane. The following applies: Not Active = under 50% inhibition at 10 µM.

Mitogen-activated protein kinase 3, sequence (P27361 whole entry): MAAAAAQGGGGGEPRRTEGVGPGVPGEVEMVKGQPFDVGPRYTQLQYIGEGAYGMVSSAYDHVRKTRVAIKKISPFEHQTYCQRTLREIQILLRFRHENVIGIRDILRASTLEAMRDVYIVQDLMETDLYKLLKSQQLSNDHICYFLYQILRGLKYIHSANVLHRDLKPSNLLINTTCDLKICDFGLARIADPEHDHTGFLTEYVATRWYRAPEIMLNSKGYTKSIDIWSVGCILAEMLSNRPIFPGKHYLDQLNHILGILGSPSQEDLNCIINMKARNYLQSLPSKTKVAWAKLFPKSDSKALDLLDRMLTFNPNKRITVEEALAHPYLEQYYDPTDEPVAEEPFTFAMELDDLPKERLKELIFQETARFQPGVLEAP
Epidermal growth factor receptor, sequence (P00533 whole entry): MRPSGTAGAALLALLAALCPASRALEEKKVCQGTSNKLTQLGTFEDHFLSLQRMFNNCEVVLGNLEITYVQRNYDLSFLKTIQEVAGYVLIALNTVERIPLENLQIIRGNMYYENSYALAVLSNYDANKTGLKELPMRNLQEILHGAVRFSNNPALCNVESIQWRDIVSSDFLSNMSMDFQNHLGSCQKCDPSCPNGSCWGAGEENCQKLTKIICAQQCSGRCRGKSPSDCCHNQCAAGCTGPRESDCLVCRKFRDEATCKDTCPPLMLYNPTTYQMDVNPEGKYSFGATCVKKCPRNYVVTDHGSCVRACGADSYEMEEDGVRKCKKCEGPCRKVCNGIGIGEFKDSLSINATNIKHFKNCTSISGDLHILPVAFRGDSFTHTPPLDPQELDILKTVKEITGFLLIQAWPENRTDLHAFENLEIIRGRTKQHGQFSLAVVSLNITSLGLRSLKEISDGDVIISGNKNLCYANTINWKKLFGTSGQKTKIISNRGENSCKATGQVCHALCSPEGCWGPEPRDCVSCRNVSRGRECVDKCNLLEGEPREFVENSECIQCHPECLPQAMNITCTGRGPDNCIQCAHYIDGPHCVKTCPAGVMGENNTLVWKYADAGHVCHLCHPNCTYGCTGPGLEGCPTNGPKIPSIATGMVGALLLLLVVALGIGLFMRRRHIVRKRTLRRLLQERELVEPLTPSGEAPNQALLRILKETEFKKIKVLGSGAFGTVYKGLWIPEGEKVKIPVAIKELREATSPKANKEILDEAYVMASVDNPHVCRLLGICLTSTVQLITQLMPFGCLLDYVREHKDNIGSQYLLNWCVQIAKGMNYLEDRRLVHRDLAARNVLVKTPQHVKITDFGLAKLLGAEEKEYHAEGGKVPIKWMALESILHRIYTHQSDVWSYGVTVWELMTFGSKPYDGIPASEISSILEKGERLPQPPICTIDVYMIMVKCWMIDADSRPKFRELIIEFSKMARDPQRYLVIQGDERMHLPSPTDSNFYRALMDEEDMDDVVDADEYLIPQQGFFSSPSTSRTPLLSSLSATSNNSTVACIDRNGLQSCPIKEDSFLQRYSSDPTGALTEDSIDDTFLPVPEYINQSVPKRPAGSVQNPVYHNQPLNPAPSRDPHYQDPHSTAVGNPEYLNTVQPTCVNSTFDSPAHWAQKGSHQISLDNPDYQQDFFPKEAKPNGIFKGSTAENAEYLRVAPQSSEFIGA

A word on the IC50: it is the midpoint of a concentration-inhibition curve. The term Ki denotes the dissociation constant of the complex between target and ligand, obtained from inhibition or displacement. As to `C[C@H]1C[C@@H]2[C@H]([C@@H](O)C[C@@]3(C)[C@H]2CC[C@]3(O)C(=O)CO)[C@@]2(C)C=CC(=O)C=C12` [METHYLPREDNISOLONE], the IC50 result in experiment [1], in experiment [2], in experiment [3] (sf9), in experiment [4], in experiment [5] and in experiment [6] was “Not Active” throughout. In addition, the 50% inhibitory concentration (IC50) entry in experiment [7] is recorded as “Not Active”. Further, the Ki entry in experiment [2], in experiment [5] and in experiment [7] was “Not Active” in each case.
Regarding `Cc1cccc(C)c1OCC(C)N` (stereo not drawn) [MEXILETINE], the IC50 result in experiment [1], in experiment [2], in experiment [3] (sf9), in experiment [4], in experiment [5] and in experiment [6] was “Not Active” throughout. Besides, the 50% inhibitory concentration (IC50) result in experiment [7] was “Not Active”. Besides, the Ki result in experiment [2], in experiment [5] and in experiment [7] was “Not Active” each time.
Regarding `Nc1cc(N2CCCCC2)nc(N)[n+]1[O-]` [MINOXIDIL], the IC50 result in experiment [1], in experiment [2], in experiment [3] (sf9), in experiment [4], in experiment [5] and in experiment [6] was “Not Active” in each case. In experiment [7], the IC50 result is “Not Active”. In addition, the Ki entry in experiment [2], in experiment [5] and in experiment [7] was “Not Active” in each case.
As for `CO[C@H]1/C=C/O[C@@]2(C)Oc3c(C)c(O)c4c(O)c(c(/C=N/N5CCN(C6CCCC6)CC5)c(O)c4c3C2=O)NC(=O)/C(C)=C\C=C\[C@H](C)[C@H](O)[C@@H](C)[C@@H](O)[C@@H](C)[C@H](OC(C)=O)[C@@H]1C` [RIFAPENTINE], the IC50 result in experiment [1], in experiment [2], in experiment [3] (sf9), in experiment [4], in experiment [5] and in experiment [6] was “Not Active” throughout. Moreover, the IC50 result in experiment [7] is listed as “Not Active”. The Ki entry in experiment [2], in experiment [5] and in experiment [7] was “Not Active” in each case.
For the molecule `CCCCOc1cc(CC2CNC(=O)N2)ccc1OC` (stereo not drawn) [RO-201724], the IC50 entry in experiment [1], in experiment [2], in experiment [3] (sf9), in experiment [4], in experiment [5] and in experiment [6] was “Not Active” in each case. For the same molecule, in experiment [7], the IC50 result is listed as “Not Active”. Besides, the inhibition constant (Ki) result in experiment [2], in experiment [5] and in experiment [7] was “Not Active” each time.
Consider `CC[C@@H](C(=O)[C@@H](C)[C@@H](O)[C@H](C)[C@@H]1O[C@@H]([C@@H](CC)C(=O)O)CC[C@@H]1C)[C@H]1O[C@]2(C=C[C@@H](O)[C@]3(CC[C@@](C)([C@H]4CC[C@](O)(CC)[C@H](C)O4)O3)O2)[C@H](C)C[C@@H]1C` [SALINOMYCIN], for which the IC50 result in experiment [1], in experiment [2], in experiment [3] (sf9), in experiment [4], in experiment [5] and in experiment [6] was “Not Active” each time. Besides, the 50% inhibitory concentration (IC50) entry in experiment [7] is reported as “Not Active”. The inhibition constant (Ki) entry in experiment [2], in experiment [5] and in experiment [7] was “Not Active” in each case.
Regarding `O=C(Oc1ccccc1C(=O)O)c1ccccc1O` [SALSALATE], the IC50 entry in experiment [1], in experiment [2], in experiment [3] (sf9), in experiment [4], in experiment [5] and in experiment [6] was “Not Active” each time. In addition, the IC50 result in experiment [7] is reported as “Not Active”. The inhibition constant (Ki) result in experiment [2], in experiment [5] and in experiment [7] was “Not Active” throughout.
As for `O=C(O)c1cn(-c2ccc(F)cc2)c2cc(N3CCNCC3)c(F)cc2c1=O` [SARAFLOXACIN], the half-inhibitory concentration (IC50) entry in experiment [1], in experiment [2], in experiment [3] (sf9), in experiment [4], in experiment [5] and in experiment [6] was “Not Active” in each case. Moreover, the IC50 entry in experiment [7] is recorded as “Not Active”. For the same molecule, the inhibition constant Ki result in experiment [2], in experiment [5] and in experiment [7] was “Not Active” throughout.
`CC(C)NCC(O)c1ccc(NS(C)(=O)=O)cc1` (stereo not drawn) [SOTALOL]: the IC50 entry in experiment [1], in experiment [2], in experiment [3] (sf9), in experiment [4], in experiment [5] and in experiment [6] was “Not Active” throughout. The IC50 entry in experiment [7] is listed as “Not Active”. The Ki entry in experiment [2], in experiment [5] and in experiment [7] was “Not Active” each time.
For `O.O.O.O.O.O.[Cl-].[Cl-].[Sr+2]` [STRONTIUM CHLORIDE HEXAHYDRATE], the IC50 entry in experiment [1], in experiment [2], in experiment [3] (sf9), in experiment [4], in experiment [5] and in experiment [6] was “Not Active” in each case. Further, in experiment [7], the IC50 result was “Not Active”. Moreover, the Ki result in experiment [2], in experiment [5] and in experiment [7] was “Not Active” each time.
As for `O=C1C(CC[S+]([O-])c2ccccc2)C(=O)N(c2ccccc2)N1c1ccccc1` (stereo not drawn) [SULFINPYRAZONE], the IC50 result in experiment [1], in experiment [2], in experiment [3] (sf9), in experiment [4], in experiment [5] and in experiment [6] was “Not Active” throughout. The half-inhibitory concentration (IC50) entry in experiment [7] was “Not Active”. The Ki entry in experiment [2], in experiment [5] and in experiment [7] was “Not Active” each time.
Regarding `NC(=O)N1C(=O)/C(=C(\O)c2cccs2)c2cc(Cl)ccc21` [TENIDAP], the IC50 result in experiment [1], in experiment [2], in experiment [3] (sf9), in experiment [4], in experiment [5] and in experiment [6] was “Not Active” each time. Further, the IC50 result in experiment [7] is recorded as “Not Active”. Besides, the Ki entry in experiment [2], in experiment [5] and in experiment [7] was “Not Active” each time.
`COc1cc2nc(N3CCN(C(=O)C4CCCO4)CC3)nc(N)c2cc1OC` (stereo not drawn) [TERAZOSIN]: the 50% inhibitory concentration (IC50) result was “Not Active” in experiment [1]; “Not Active” in experiment [2]; 13800 nM in experiment [3] (read-out: IC50); “Not Active” in experiment [4]; “Not Active” in experiment [5]; “Not Active” in experiment [6]. In addition, in experiment [7] (read-out: IC50), the IC50 amounted to 1270 nM. Moreover, the Ki entry was “Not Active” in experiment [2], 5190 nM in experiment [3], “Not Active” in experiment [5] and 846 nM in experiment [7] (read-out: Ki).
For `CN(C/C=C/C#CC(C)(C)C)Cc1cccc2ccccc12` [TERBINAFINE], the concentration for half-maximal inhibition (IC50) result in experiment [1] was “Not Active”; in experiment [2], “Not Active”; in experiment [3] (read-out: IC50), 5700 nM; in experiment [4], “Not Active”; in experiment [5] it was “Not Active”; in experiment [6], “Not Active”. Besides, the IC50 result in experiment [7] is “Not Active”. Moreover, the Ki result in experiment [2] was “Not Active”; in experiment [3], 2140 nM; in experiment [5], “Not Active”; in experiment [7], “Not Active”.
Consider `CCCCNc1ccc(C(=O)OCCN(C)C)cc1` [TETRACAINE], for which the IC50 result in experiment [1], in experiment [2], in experiment [3] (sf9), in experiment [4], in experiment [5] and in experiment [6] was “Not Active” in each case. Besides, in experiment [7], the IC50 result is “Not Active”. Also, the inhibition constant (Ki) entry in experiment [2], in experiment [5] and in experiment [7] was “Not Active” each time.
For the molecule `CS(=O)(=O)c1ccc([C@@H](O)[C@@H](CO)NC(=O)C(Cl)Cl)cc1` [THIAMPHENICOL], the IC50 result in experiment [1], in experiment [2], in experiment [3] (sf9), in experiment [4], in experiment [5] and in experiment [6] was “Not Active” throughout. Moreover, the IC50 result in experiment [7] is listed as “Not Active”. Further, the inhibition constant Ki result in experiment [2], in experiment [5] and in experiment [7] was “Not Active” in each case.
As to `CCN(CC)CCNC(=O)c1cc(S(C)(=O)=O)ccc1OC` [TIAPRIDE], the IC50 result in experiment [1] is “Not Active”; in experiment [2], “Not Active”; in experiment [3] (read-out: IC50), 2080 nM; in experiment [4] it was “Not Active”; in experiment [5] it was “Not Active”; in experiment [6], “Not Active”. The IC50 entry in experiment [7] is listed as “Not Active”. The Ki result is “Not Active” in experiment [2], 779 nM in experiment [3], “Not Active” in experiment [5] and “Not Active” in experiment [7].
